Data: PubChem BioAssay (NCI)
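A five-concentration, 48-hour dose response in 96-well plates underlies each endpoint, interpolated linearly between surrounding concentrations. TGI denotes the concentration required for complete inhibition of growth.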

How the values were obtained:
Test in all cases: NCI anticancer screen, dose series, 48 h
NCI-H226 lung = test system: NCI-H226 lung
LXFL 529 NSCLC = test system: LXFL 529 NSCLC
NCI-H522 lung = test system: NCI-H522 lung
HCC-2998 colon = test system: HCC-2998 colon
SK-OV-3 ovarian = test system: SK-OV-3 ovarian
HL-60(TB) leukemia = test system: HL-60(TB) leukemia
HOP-92 NSCLC = test system: HOP-92 NSCLC
HOP-62 NSCLC = test system: HOP-62 NSCLC
M19-MEL melanoma = test system: M19-MEL melanoma
RXF 393 renal = test system: RXF 393 renal
DMS 273 small cell lung = test system: DMS 273 small cell lung
UO-31 renal = test system: UO-31 renal
SNB-78 CNS = test system: SNB-78 CNS
CAKI-1 renal = test system: CAKI-1 renal
M14 melanoma = test system: M14 melanoma
LOX IMVI melanoma = test system: LOX IMVI melanoma
MALME-3M melanoma = test system: MALME-3M melanoma
SF-295 CNS = test system: SF-295 CNS
HCT-15 colon = test system: HCT-15 colon
786-0 renal = test system: 786-0 renal
SW-620 colon = test system: SW-620 colon
MOLT-4 leukemia = test system: MOLT-4 leukemia
A549 NSCLC = test system: A549 NSCLC
SK-MEL-2 melanoma = test system: SK-MEL-2 melanoma
A498 renal = test system: A498 renal
UACC-62 melanoma = test system: UACC-62 melanoma
NCI-H460 lung = test system: NCI-H460 lung
OVCAR-5 ovarian = test system: OVCAR-5 ovarian
ACHN renal = test system: ACHN renal
OVCAR-4 ovarian = test system: OVCAR-4 ovarian
SK-MEL-5 melanoma = test system: SK-MEL-5 melanoma
SK-MEL-28 melanoma = test system: SK-MEL-28 melanoma
KM12 colon = test system: KM12 colon
K-562 leukemia = test system: K-562 leukemia
IGROV1 ovarian = test system: IGROV1 ovarian
OVCAR-8 ovarian = test system: OVCAR-8 ovarian
EKVX NSCLC = test system: EKVX NSCLC
UACC-257 melanoma = test system: UACC-257 melanoma
KM20L2 colon = test system: KM20L2 colon
SNB-75 CNS = test system: SNB-75 CNS
SF-268 CNS = test system: SF-268 CNS
SN12C renal = test system: SN12C renal
RPMI-8226 leukemia = test system: RPMI-8226 leukemia
HOP-18 NSCLC = test system: HOP-18 NSCLC
U251 CNS = test system: U251 CNS
TK-10 renal = test system: TK-10 renal
HT29 colon = test system: HT29 colon
CCRF-CEM leukemia = test system: CCRF-CEM leukemia
DLD-1 colon = test system: DLD-1 colon
SF-539 CNS = test system: SF-539 CNS
NCI-H23 lung = test system: NCI-H23 lung
SNB-19 CNS = test system: SNB-19 CNS
OVCAR-3 ovarian = test system: OVCAR-3 ovarian
COLO 205 colon = test system: COLO 205 colon
HCT-116 colon = test system: HCT-116 colon

Work on `CC[C@]1(O)CC2CN(CCCc3c([nH]c4ccccc34)[C@@](C(=O)OC)(c3cc4c(cc3OC)N(C)C3C45CCN4CC=C[C@](CC)(C45)C(OC(C)=O)[C@@]3(O)C(=O)OC)C2)C1` (stereo not given in full) yielded a TGI (NCI-H226 lung) greater than 3.01 µM, a TGI (LXFL 529 NSCLC) greater than 10 µM and a TGI (NCI-H522 lung) of 0.393 µM. It also gave a TGI (HCC-2998 colon) of 8.2 µM, a TGI (SK-OV-3 ovarian) greater than 7.95 µM and a TGI (HL-60(TB) leukemia) greater than 5.65 µM. It also gave a TGI (HOP-92 NSCLC) greater than 10 µM, a TGI (HOP-62 NSCLC) greater than 3.4 µM and a TGI (M19-MEL melanoma) greater than 10 µM. The TGI (RXF 393 renal) was 4.41 µM, the TGI (DMS 273 small cell lung) was greater than 10 µM and the TGI (UO-31 renal) was greater than 10 µM. It also gave a TGI (SNB-78 CNS) greater than 3.04 µM, a TGI (CAKI-1 renal) greater than 10 µM and a TGI (M14 melanoma) of 4.01 µM. The TGI (LOX IMVI melanoma) was greater than 10 µM, the TGI (MALME-3M melanoma) was greater than 3.16 µM and the TGI (SF-295 CNS) was greater than 2.13 µM. The TGI (HCT-15 colon) was greater than 10 µM, the TGI (786-0 renal) was greater than 10 µM and the TGI (SW-620 colon) was greater than 10 µM. The TGI (MOLT-4 leukemia) was greater than 10 µM, the TGI (A549 NSCLC) was greater than 10 µM and the TGI (SK-MEL-2 melanoma) was greater than 8.05 µM. The TGI (A498 renal) was 4.54 µM, the TGI (UACC-62 melanoma) was greater than 10 µM and the TGI (NCI-H460 lung) was greater than 10 µM. The TGI (OVCAR-5 ovarian) was greater than 10 µM, the TGI (ACHN renal) was greater than 10 µM and the TGI (OVCAR-4 ovarian) was greater than 10 µM. For the same compound, the TGI (SK-MEL-5 melanoma) was greater than 6.15 µM, the TGI (SK-MEL-28 melanoma) was greater than 10 µM and the TGI (KM12 colon) was greater than 10 µM. The TGI (K-562 leukemia) was greater than 10 µM, the TGI (IGROV1 ovarian) was greater than 10 µM and the TGI (OVCAR-8 ovarian) was greater than 10 µM. For the same compound, the TGI (EKVX NSCLC) was greater than 8.04 µM, the TGI (UACC-257 melanoma) was greater than 10 µM and the TGI (KM20L2 colon) was 1.05 µM. It also gave a TGI (SNB-75 CNS) of 5.7 µM, a TGI (SF-268 CNS) greater than 3.13 µM and a TGI (SN12C renal) greater than 10 µM. It also gave a TGI (RPMI-8226 leukemia) greater than 8.84 µM, a TGI (HOP-18 NSCLC) of 0.73 µM and a TGI (U251 CNS) greater than 10 µM. The TGI (TK-10 renal) was greater than 10 µM, the TGI (HT29 colon) was greater than 3.44 µM and the TGI (CCRF-CEM leukemia) was greater than 10 µM. It also gave a TGI (DLD-1 colon) greater than 10 µM, a TGI (SF-539 CNS) of 6.03 µM and a TGI (NCI-H23 lung) of 3.77 µM. The TGI (SNB-19 CNS) was 9.83 µM, the TGI (OVCAR-3 ovarian) was greater than 2.12 µM and the TGI (COLO 205 colon) was greater than 7.86 µM. For the same compound, the TGI (HCT-116 colon) was greater than 10 µM.
